Reference: patent US9956204B2, “Composition for exterminating scuticociliates in fish including mebendazole” (NATIONAL INSTITUTE OF FISHERIES SCIENCE, priority 2016, dated 2018)

Experiments:
scuticociliates [1] = experiment: Scuticociliates extermination effect of candidate substances in seawater medium; format: cell-based; settings: seawater medium, 4 hour
Protocol: For this, scuticociliates were cultured in CHSE-214 cell line (using MEM medium), and then scuticociliates were collected and centrifuged with sterilized seawater or artificial seawater (20‰) to replace them with a seawater medium. Each of 100 μl (1×10^5) was dispensed into each well of 96 wells, followed by further culture for 30 minutes. The candidate substances diluted in seawater to have a volume of 100 μl per each concentration were mixed with scuticociliates to have the final volume of 200 μl and cultured for 4 hour.

scuticociliates [2] = experiment: Scuticociliates extermination effect of candidate substances in MEM medium; format: cell-based; settings: MEM medium
Protocol: CHSE-214 cell line into which scuticociliates were inoculated was cultured in advance. The CHSE-214 cell line was cultured in an incubator using an MEM medium at 22° C. Scuticociliates inoculated into the cell line proliferated for 3 days by which the number reaches to be capable of analyzing in vitro anti-scuticociliates effect. Scuticociliates that feed on the cell line and sufficiently grow were mixed with the candidate substance and the activity of scuticociliates was measured.
In order to analyze the antiparasitic activity of the above 19 types of candidate substances of scuticociliates extermination drugs, scuticociliates were cultured for 3 days, and 100 μl (1×10^5) was dispensed into each well of 96 wells. The candidate substances were diluted by each concentration and the final volume was dispensed into 100 μl. Thereafter, the two were mixed and finally made into 200 μl.

Nc1cc(C(Cl)=C(Cl)Cl)c(S(N)(=O)=O)cc1S(N)(=O)=O [Clorsulon]
Survival or Death of scuticociliates (activity and shape, microscope) (scuticociliates [1]; Dosage 50 ppm): Survival
Survival or Death of scuticociliates (activity and shape, microscope) (scuticociliates [1]; Dosage 250 ppm): Survival
Survival or Death of scuticociliates (activity and shape, microscope) (scuticociliates [1]; Dosage 500 ppm): Survival
Survival or Death of scuticociliates (activity and shape, microscope) (scuticociliates [1]; Dosage 1000 ppm): Survival
Survival or Death of scuticociliates (activity and shape, microscope) (scuticociliates [1]; Dosage 1200 ppm): Survival
Survival or Death of scuticociliates (activity and shape, microscope) (scuticociliates [1]; Dosage 1400 ppm): Survival
Survival or Death of scuticociliates (activity and shape, microscope) (scuticociliates [1]; Dosage 1500 ppm): Death
Survival or Death of scuticociliates (activity and shape, microscope) (scuticociliates [2]; Dosage 500 ppm): Survival
Survival or Death of scuticociliates (activity and shape, microscope) (scuticociliates [2]; Dosage 700 ppm): Survival
Survival or Death of scuticociliates (activity and shape, microscope) (scuticociliates [2]; Dosage 800 ppm): Survival
Survival or Death of scuticociliates (activity and shape, microscope) (scuticociliates [2]; Dosage 900 ppm): Δ
Survival or Death of scuticociliates (activity and shape, microscope) (scuticociliates [2]; Dosage 1000 ppm): Δ
Survival or Death of scuticociliates (activity and shape, microscope) (scuticociliates [2]; Dosage 2000 ppm): Death
Survival or Death of scuticociliates (activity and shape, microscope) (scuticociliates [2]; Dosage 4000 ppm): Death

CN1CCCN=C1/C=C/c1cccs1 [Pyrantel]
Survival or Death of scuticociliates (activity and shape, microscope) (scuticociliates [1]; Dosage 500 ppm): Survival
Survival or Death of scuticociliates (activity and shape, microscope) (scuticociliates [1]; Dosage 1000 ppm): Survival
Survival or Death of scuticociliates (activity and shape, microscope) (scuticociliates [1]; Dosage 1500 ppm): Survival
Survival or Death of scuticociliates (activity and shape, microscope) (scuticociliates [1]; Dosage 2000 ppm): Survival
Survival or Death of scuticociliates (activity and shape, microscope) (scuticociliates [1]; Dosage 2500 ppm): Survival
Survival or Death of scuticociliates (activity and shape, microscope) (scuticociliates [1]; Dosage 3000 ppm): Survival
Survival or Death of scuticociliates (activity and shape, microscope) (scuticociliates [1]; Dosage 3500 ppm): Survival
Survival or Death of scuticociliates (activity and shape, microscope) (scuticociliates [1]; Dosage 4000 ppm): Survival
Survival or Death of scuticociliates (activity and shape, microscope) (scuticociliates [2]; Dosage 500 ppm): Survival
Survival or Death of scuticociliates (activity and shape, microscope) (scuticociliates [2]; Dosage 1000 ppm): Survival
Survival or Death of scuticociliates (activity and shape, microscope) (scuticociliates [2]; Dosage 1500 ppm): Survival
Survival or Death of scuticociliates (activity and shape, microscope) (scuticociliates [2]; Dosage 2000 ppm): Survival
Survival or Death of scuticociliates (activity and shape, microscope) (scuticociliates [2]; Dosage 2500 ppm): Survival
Survival or Death of scuticociliates (activity and shape, microscope) (scuticociliates [2]; Dosage 3000 ppm): Survival
Survival or Death of scuticociliates (activity and shape, microscope) (scuticociliates [2]; Dosage 3500 ppm): Survival
Survival or Death of scuticociliates (activity and shape, microscope) (scuticociliates [2]; Dosage 4000 ppm): Survival

CCCSc1ccc2nc(NC(=O)OC)[nH]c2c1 [Albendazole]
Survival or Death of scuticociliates (activity and shape, microscope) (scuticociliates [1]; Dosage 10 ppm): Survival
Survival or Death of scuticociliates (activity and shape, microscope) (scuticociliates [1]; Dosage 50 ppm): Survival
Survival or Death of scuticociliates (activity and shape, microscope) (scuticociliates [1]; Dosage 100 ppm): Survival
Survival or Death of scuticociliates (activity and shape, microscope) (scuticociliates [1]; Dosage 200 ppm): Survival
Survival or Death of scuticociliates (activity and shape, microscope) (scuticociliates [1]; Dosage 300 ppm): Survival
Survival or Death of scuticociliates (activity and shape, microscope) (scuticociliates [1]; Dosage 400 ppm): Survival
Survival or Death of scuticociliates (activity and shape, microscope) (scuticociliates [1]; Dosage 500 ppm): Survival
Survival or Death of scuticociliates (activity and shape, microscope) (scuticociliates [1]; Dosage 600 ppm): Survival
Survival or Death of scuticociliates (activity and shape, microscope) (scuticociliates [1]; Dosage 700 ppm): Survival
Survival or Death of scuticociliates (activity and shape, microscope) (scuticociliates [1]; Dosage 800 ppm): Δ
Survival or Death of scuticociliates (activity and shape, microscope) (scuticociliates [1]; Dosage 900 ppm): Death
Survival or Death of scuticociliates (activity and shape, microscope) (scuticociliates [1]; Dosage 1000 ppm): Death
Survival or Death of scuticociliates (activity and shape, microscope) (scuticociliates [2]; Dosage 10 ppm): Survival
Survival or Death of scuticociliates (activity and shape, microscope) (scuticociliates [2]; Dosage 50 ppm): Survival
Survival or Death of scuticociliates (activity and shape, microscope) (scuticociliates [2]; Dosage 100 ppm): Survival
Survival or Death of scuticociliates (activity and shape, microscope) (scuticociliates [2]; Dosage 200 ppm): Survival
Survival or Death of scuticociliates (activity and shape, microscope) (scuticociliates [2]; Dosage 300 ppm): Survival
Survival or Death of scuticociliates (activity and shape, microscope) (scuticociliates [2]; Dosage 400 ppm): Survival
Survival or Death of scuticociliates (activity and shape, microscope) (scuticociliates [2]; Dosage 500 ppm): Survival
Survival or Death of scuticociliates (activity and shape, microscope) (scuticociliates [2]; Dosage 600 ppm): Survival
Survival or Death of scuticociliates (activity and shape, microscope) (scuticociliates [2]; Dosage 700 ppm): Survival
Survival or Death of scuticociliates (activity and shape, microscope) (scuticociliates [2]; Dosage 800 ppm): Δ
Survival or Death of scuticociliates (activity and shape, microscope) (scuticociliates [2]; Dosage 900 ppm): Death
Survival or Death of scuticociliates (activity and shape, microscope) (scuticociliates [2]; Dosage 1000 ppm): Death

CC[C@H](C)[C@H]1O[C@]2(CC[C@@H]1C)C[C@@H]1C[C@@H](C/C=C(\C)[C@@H](O[C@H]3C[C@H](OC)[C@@H](O[C@H]4C[C@H](OC)[C@@H](O)[C@H](C)O4)[C@H](C)O3)[C@@H](C)/C=C/C=C3\CO[C@@H]4[C@H](O)C(C)=C[C@@H](C(=O)O1)[C@]34O)O2 [Ivermectin]
Survival or Death of scuticociliates (activity and shape, microscope) (scuticociliates [1]; Dosage 500 ppm): Survival
Survival or Death of scuticociliates (activity and shape, microscope) (scuticociliates [1]; Dosage 1000 ppm): Survival
Survival or Death of scuticociliates (activity and shape, microscope) (scuticociliates [1]; Dosage 1500 ppm): Survival
Survival or Death of scuticociliates (activity and shape, microscope) (scuticociliates [1]; Dosage 2000 ppm): Survival
Survival or Death of scuticociliates (activity and shape, microscope) (scuticociliates [1]; Dosage 2500 ppm): Survival
Survival or Death of scuticociliates (activity and shape, microscope) (scuticociliates [1]; Dosage 3000 ppm): Survival
Survival or Death of scuticociliates (activity and shape, microscope) (scuticociliates [1]; Dosage 3500 ppm): Survival
Survival or Death of scuticociliates (activity and shape, microscope) (scuticociliates [1]; Dosage 4000 ppm): Survival
Survival or Death of scuticociliates (activity and shape, microscope) (scuticociliates [2]; Dosage 500 ppm): Survival
Survival or Death of scuticociliates (activity and shape, microscope) (scuticociliates [2]; Dosage 1000 ppm): Survival
Survival or Death of scuticociliates (activity and shape, microscope) (scuticociliates [2]; Dosage 1500 ppm): Survival
Survival or Death of scuticociliates (activity and shape, microscope) (scuticociliates [2]; Dosage 2000 ppm): Survival
Survival or Death of scuticociliates (activity and shape, microscope) (scuticociliates [2]; Dosage 2500 ppm): Survival
Survival or Death of scuticociliates (activity and shape, microscope) (scuticociliates [2]; Dosage 3000 ppm): Survival
Survival or Death of scuticociliates (activity and shape, microscope) (scuticociliates [2]; Dosage 3500 ppm): Survival
Survival or Death of scuticociliates (activity and shape, microscope) (scuticociliates [2]; Dosage 4000 ppm): Survival

O=[N+]([O-])NC1=NCCN1Cc1ccc(Cl)nc1 [Imidacloprid]
Survival or Death of scuticociliates (activity and shape, microscope) (scuticociliates [1]; Dosage 500 ppm): Survival
Survival or Death of scuticociliates (activity and shape, microscope) (scuticociliates [1]; Dosage 1000 ppm): Δ
Survival or Death of scuticociliates (activity and shape, microscope) (scuticociliates [1]; Dosage 1200 ppm): Δ
Survival or Death of scuticociliates (activity and shape, microscope) (scuticociliates [1]; Dosage 1400 ppm): Death
Survival or Death of scuticociliates (activity and shape, microscope) (scuticociliates [1]; Dosage 1500 ppm): Death
Survival or Death of scuticociliates (activity and shape, microscope) (scuticociliates [1]; Dosage 2000 ppm): Death
Survival or Death of scuticociliates (activity and shape, microscope) (scuticociliates [1]; Dosage 2500 ppm): Death
Survival or Death of scuticociliates (activity and shape, microscope) (scuticociliates [2]; Dosage 500 ppm): Survival
Survival or Death of scuticociliates (activity and shape, microscope) (scuticociliates [2]; Dosage 600 ppm): Survival
Survival or Death of scuticociliates (activity and shape, microscope) (scuticociliates [2]; Dosage 700 ppm): Survival
Survival or Death of scuticociliates (activity and shape, microscope) (scuticociliates [2]; Dosage 800 ppm): Survival
Survival or Death of scuticociliates (activity and shape, microscope) (scuticociliates [2]; Dosage 900 ppm): Δ
Survival or Death of scuticociliates (activity and shape, microscope) (scuticociliates [2]; Dosage 1000 ppm): Δ
Survival or Death of scuticociliates (activity and shape, microscope) (scuticociliates [2]; Dosage 2000 ppm): Death
Survival or Death of scuticociliates (activity and shape, microscope) (scuticociliates [2]; Dosage 5000 ppm): Death

CC1(C)[C@H](C(=O)O[C@H](C#N)c2cccc(Oc3ccccc3)c2)[C@@H]1C=C(Br)Br [Deltamethrin]
Survival or Death of scuticociliates (activity and shape, microscope) (scuticociliates [1]; Dosage 250 ppm): Survival
Survival or Death of scuticociliates (activity and shape, microscope) (scuticociliates [1]; Dosage 500 ppm): Survival
Survival or Death of scuticociliates (activity and shape, microscope) (scuticociliates [1]; Dosage 1000 ppm): Survival
Survival or Death of scuticociliates (activity and shape, microscope) (scuticociliates [1]; Dosage 1200 ppm): Death
Survival or Death of scuticociliates (activity and shape, microscope) (scuticociliates [1]; Dosage 1400 ppm): Death
Survival or Death of scuticociliates (activity and shape, microscope) (scuticociliates [1]; Dosage 1500 ppm): Death
Survival or Death of scuticociliates (activity and shape, microscope) (scuticociliates [2]; Dosage 500 ppm): Survival
Survival or Death of scuticociliates (activity and shape, microscope) (scuticociliates [2]; Dosage 600 ppm): Survival
Survival or Death of scuticociliates (activity and shape, microscope) (scuticociliates [2]; Dosage 700 ppm): Survival
Survival or Death of scuticociliates (activity and shape, microscope) (scuticociliates [2]; Dosage 800 ppm): Survival
Survival or Death of scuticociliates (activity and shape, microscope) (scuticociliates [2]; Dosage 900 ppm): Survival
Survival or Death of scuticociliates (activity and shape, microscope) (scuticociliates [2]; Dosage 1000 ppm): Δ
Survival or Death of scuticociliates (activity and shape, microscope) (scuticociliates [2]; Dosage 2000 ppm): Death
Survival or Death of scuticociliates (activity and shape, microscope) (scuticociliates [2]; Dosage 5000 ppm): Death

CC[C@H](C)[C@H]1O[C@]2(C=C[C@@H]1C)C[C@@H]1C[C@@H](C/C=C(\C)[C@@H](O[C@H]3C[C@H](OC)[C@@H](O[C@H]4C[C@H](OC)[C@@H](O)[C@H](C)O4)[C@H](C)O3)[C@@H](C)/C=C/C=C3\CO[C@@H]4[C@H](O)C(C)=C[C@@H](C(=O)O1)[C@]34O)O2 [Abamectin]
Survival or Death of scuticociliates (activity and shape, microscope) (scuticociliates [1]; Dosage 500 ppm): Survival
Survival or Death of scuticociliates (activity and shape, microscope) (scuticociliates [1]; Dosage 800 ppm): Death
Survival or Death of scuticociliates (activity and shape, microscope) (scuticociliates [1]; Dosage 900 ppm): Death
Survival or Death of scuticociliates (activity and shape, microscope) (scuticociliates [1]; Dosage 1000 ppm): Death
Survival or Death of scuticociliates (activity and shape, microscope) (scuticociliates [1]; Dosage 1500 ppm): Death
Survival or Death of scuticociliates (activity and shape, microscope) (scuticociliates [1]; Dosage 2000 ppm): Death
Survival or Death of scuticociliates (activity and shape, microscope) (scuticociliates [2]; Dosage 10 ppm): Survival
Survival or Death of scuticociliates (activity and shape, microscope) (scuticociliates [2]; Dosage 20 ppm): Survival
Survival or Death of scuticociliates (activity and shape, microscope) (scuticociliates [2]; Dosage 50 ppm): Survival
Survival or Death of scuticociliates (activity and shape, microscope) (scuticociliates [2]; Dosage 100 ppm): Survival
Survival or Death of scuticociliates (activity and shape, microscope) (scuticociliates [2]; Dosage 150 ppm): Survival
Survival or Death of scuticociliates (activity and shape, microscope) (scuticociliates [2]; Dosage 200 ppm): Δ
Survival or Death of scuticociliates (activity and shape, microscope) (scuticociliates [2]; Dosage 400 ppm): Death
Survival or Death of scuticociliates (activity and shape, microscope) (scuticociliates [2]; Dosage 500 ppm): Death
